Activity calls are given as the source filed them. No cut-off for these calls is given here.
Key:
[1] = target: T1, [Pyruvate dehydrogenase (acetyl-transferring)] kinase isozyme 1, mitochondrial (Homo sapiens, UniProt Q15118); assay: Inhibition of full length His6-tagged PDK1 (unknown origin) expressed in Escherichia coli using full length His6-tagged PDHA1 as substrate after 30 mins by ELISA
[2] = target: T1, [Pyruvate dehydrogenase (acetyl-transferring)] kinase isozyme 1, mitochondrial; assay: Inhibition of full length His6-tagged PDK1 (unknown origin) expressed in Escherichia coli up to 10 uM using full length His6-tagged PDHA1 as substrate after 30 mins by ELISA
[3] = target: T1, [Pyruvate dehydrogenase (acetyl-transferring)] kinase isozyme 1, mitochondrial; assay: Inhibition of PDK1 in human A549 cells assessed as reduction in phosphorylation of PDHE1 at S293 residue at 1 uM after 24 hrs by chemiluminescence/femtochemiluminescence method; format: cell-based
[4] = target: T1, [Pyruvate dehydrogenase (acetyl-transferring)] kinase isozyme 1, mitochondrial; assay: Inhibition of PDK1 in human A549 cells assessed as reduction in phosphorylation of PDHE1 at S293 residue at 10 uM after 24 hrs by chemiluminescence/femtochemiluminescence method; format: cell-based
[5] = target: T1, [Pyruvate dehydrogenase (acetyl-transferring)] kinase isozyme 1, mitochondrial; assay: Inhibition of PDK1 in human A549 cells assessed as reduction in phosphorylation of PDHE1 at S232 residue at 1 uM after 24 hrs by chemiluminescence/femtochemiluminescence method; format: cell-based
[6] = target: T1, [Pyruvate dehydrogenase (acetyl-transferring)] kinase isozyme 1, mitochondrial; assay: Inhibition of PDK1 in human A549 cells assessed as reduction in phosphorylation of PDHE1 at S232 residue at 10 uM after 24 hrs by chemiluminescence/femtochemiluminescence method; format: cell-based
[7] = target: T1, [Pyruvate dehydrogenase (acetyl-transferring)] kinase isozyme 1, mitochondrial; assay: Inhibition of PDK1 in human A549 cells assessed as reduction in phosphorylation of PDHE1 at S232 residue after 24 hrs by chemiluminescence/femtochemiluminescence method; format: cell-based
[8] = target: T1, [Pyruvate dehydrogenase (acetyl-transferring)] kinase isozyme 1, mitochondrial; assay: Inhibition of PDK1 in human A549 cells assessed as reduction in phosphorylation of PDHE1 at S293 residue after 24 hrs by chemiluminescence/femtochemiluminescence method; format: cell-based
[9] = target: [Pyruvate dehydrogenase (acetyl-transferring)] kinase isozyme 3, mitochondrial (Homo sapiens, UniProt Q15120); assay: Inhibition of PDK3 (unknown origin) using full length His6-tagged PDHA1 as substrate after 30 mins by ELISA
Chain of [Pyruvate dehydrogenase (acetyl-transferring)] kinase isozyme 3, mitochondrial (Q15120 whole entry): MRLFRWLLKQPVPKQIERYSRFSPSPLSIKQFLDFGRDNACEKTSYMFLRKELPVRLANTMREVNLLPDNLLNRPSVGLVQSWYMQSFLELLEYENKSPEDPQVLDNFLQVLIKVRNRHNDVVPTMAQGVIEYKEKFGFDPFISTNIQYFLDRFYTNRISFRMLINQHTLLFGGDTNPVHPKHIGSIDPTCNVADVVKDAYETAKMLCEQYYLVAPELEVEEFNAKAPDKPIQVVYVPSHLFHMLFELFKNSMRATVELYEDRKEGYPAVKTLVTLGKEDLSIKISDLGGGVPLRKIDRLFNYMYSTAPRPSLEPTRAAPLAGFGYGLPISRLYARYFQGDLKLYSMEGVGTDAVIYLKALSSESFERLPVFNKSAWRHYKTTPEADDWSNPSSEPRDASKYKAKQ

[10] = Antiproliferative activity against human GM00637 cells after 72 hrs by CCK8 assay; format: cell-based; conditions: GM00637, 72 h
[11] = system: A549; assay: cells; conditions: Homo sapiens, A549, 72 h
Description: Antiproliferative activity against human A549 cells after 72 hrs by CCK8 assay

[12] = target: [Pyruvate dehydrogenase (acetyl-transferring)] kinase isozyme 4, mitochondrial (Homo sapiens, UniProt Q16654); assay: Inhibition of PDK4 (unknown origin) at 10 uM using full length His6-tagged PDHA1 as substrate after 30 mins by ELISA
Chain of [Pyruvate dehydrogenase (acetyl-transferring)] kinase isozyme 4, mitochondrial (Q16654 whole entry, looked up): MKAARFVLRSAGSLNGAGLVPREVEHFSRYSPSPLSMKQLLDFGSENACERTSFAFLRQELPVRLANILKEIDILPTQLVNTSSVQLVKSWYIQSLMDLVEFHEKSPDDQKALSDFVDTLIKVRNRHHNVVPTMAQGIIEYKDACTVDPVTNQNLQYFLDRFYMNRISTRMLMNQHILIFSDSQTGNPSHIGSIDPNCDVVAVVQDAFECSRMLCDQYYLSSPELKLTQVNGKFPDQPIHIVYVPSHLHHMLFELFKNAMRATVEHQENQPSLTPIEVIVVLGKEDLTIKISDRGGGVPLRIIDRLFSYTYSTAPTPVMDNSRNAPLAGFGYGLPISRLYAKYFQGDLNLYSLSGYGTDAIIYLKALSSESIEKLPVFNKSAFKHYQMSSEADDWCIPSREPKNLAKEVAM

[13] = system: L02; assay: Antiproliferative activity against human LO2 cells after 72 hrs by CCK8 assay; format: cell-based; conditions: L02, 72 h
[14] = system: A549; assay: Antitumor activity against human A549 cells xenografted in BALB/c nude mouse assessed as tumor growth inhibition at 80 mg/kg, ip for 21 days measured on day 21 post dose relative to control; format: functional; conditions: 504 h, read-out: TGI
[15] = target: T1, [Pyruvate dehydrogenase (acetyl-transferring)] kinase isozyme 1, mitochondrial; assay: Inhibition of full length His6-tagged PDK1 (unknown origin) expressed in Escherichia coli using full length His6-tagged PDHA1 as substrate in presence of GSH after 30 mins by ELISA
[16] = target: T1, [Pyruvate dehydrogenase (acetyl-transferring)] kinase isozyme 1, mitochondrial; assay: Inhibition of PDK1 in human A549 cells assessed as reduction in extracellular acidification rate after 24 hrs by fluorescent biosensor based assay; format: cell-based
[17] = target: T1, [Pyruvate dehydrogenase (acetyl-transferring)] kinase isozyme 1, mitochondrial; assay: Inhibition of PDK1 in human A549 cells assessed as increase in reactive oxygen species after 24 hrs by dihydroethidium staining based FACS analysis; format: cell-based
[18] = target: [Pyruvate dehydrogenase (acetyl-transferring)] kinase isozyme 2, mitochondrial (Homo sapiens, UniProt Q15119); assay: Inhibition of PDK2 (unknown origin) using full length His6-tagged PDHA1 as substrate after 30 mins by ELISA
[19] = system: A549; assay: Antitumor activity against human A549 cells xenografted in BALB/c nude mouse assessed as tumor growth inhibition at 40 mg/kg, ip for 21 days measured on day 21 post dose relative to control; format: functional; conditions: 504 h, read-out: TGI
[20] = Antiproliferative activity against human Kelly cells after 72 hrs by CCK8 assay
[21] = target: T1, [Pyruvate dehydrogenase (acetyl-transferring)] kinase isozyme 1, mitochondrial; assay: Inhibition of full length His6-tagged PDK1 (unknown origin) expressed in Escherichia coli assessed as inactivation rate using full length His6-tagged PDHA1 as substrate up to 45 mins by ELISA
[22] = target: T1, [Pyruvate dehydrogenase (acetyl-transferring)] kinase isozyme 1, mitochondrial; assay: Ratio of Kinact to Ki for full length His6-tagged PDK1 (unknown origin) expressed in Escherichia coli

T1 sequence (Q15118 whole entry): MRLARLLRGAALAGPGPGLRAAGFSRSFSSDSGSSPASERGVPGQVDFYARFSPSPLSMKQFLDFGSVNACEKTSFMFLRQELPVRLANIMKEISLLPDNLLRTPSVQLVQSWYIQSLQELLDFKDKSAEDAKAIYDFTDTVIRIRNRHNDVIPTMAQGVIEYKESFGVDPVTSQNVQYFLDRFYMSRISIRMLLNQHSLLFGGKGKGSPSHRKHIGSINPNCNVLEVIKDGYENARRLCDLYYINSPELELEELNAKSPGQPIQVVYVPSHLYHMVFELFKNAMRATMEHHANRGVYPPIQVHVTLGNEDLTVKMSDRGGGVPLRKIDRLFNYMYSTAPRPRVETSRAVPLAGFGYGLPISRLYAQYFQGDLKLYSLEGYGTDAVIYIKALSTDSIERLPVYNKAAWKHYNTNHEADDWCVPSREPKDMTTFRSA

C1Cc2nc(SSc3nc4c(s3)CCC4)sc2C1
IC50 [1]: 139 nM

c1cnc2sc(SSc3nc4cccnc4s3)nc2c1
IC50 [1]: 476 nM

CCOC(=O)C1CCc2nc(SSc3nc4c(s3)CC(C(=O)OCC)CC4)sc2C1 (stereo not given)
IC50 [1]: 109 nM

CCOC(=O)C1CCc2nc(S)sc2C1 (stereo not given)
inhibition [2]: inactive

O=C(O)C1CCc2nc(SSc3nc4c(s3)CC(C(=O)O)CC4)sc2C1 (stereo not given)
IC50 [1]: 130 nM

OCCOCC1CN(C(=S)SSC(=S)N2CCCOC(COCCO)C2)CCCO1 (stereo not given)
IC50 [1]: 6830 nM

c1ccc2sc(SSc3nc4ccccc4s3)nc2c1 [BENZOTHIAZYL DISULFIDE]
IC50 [1]: 379 nM

C[C@@H]1CN(C(=S)SSC(=S)N2C[C@@H](C)O[C@@H](C)C2)C[C@H](C)O1
inhibition [3]: Active
inhibition [4]: Active
inhibition [5]: Active
inhibition [6]: Active
IC50 [1]: 32 nM

COC[C@@H]1COCCN1C(=S)SSC(=S)N1CCOC[C@H]1COC
inhibition [7]: Dose-dependent effect
inhibition [8]: Dose-dependent effect
Ki [9]: 2990 nM
IC50 [10]: > 10000 nM
IC50 [11]: 957 nM
inhibition [12]: inactive
IC50 [13]: > 10000 nM
inhibition in vivo at 80 mg/kg [14]: 20%
inhibition [15]: inactive
inhibition [3]: Active
inhibition [16]: Dose-dependent effect
inhibition [4]: Active
inhibition [5]: Active
inhibition [17]: Dose-dependent effect
Ki [18]: 702 nM
inhibition in vivo at 40 mg/kg [19]: 11%
inhibition [6]: Active
IC50 [1]: 24 nM
Ki [1]: 110 nM
IC50 [20]: 1430 nM

COC(=O)C1CN(C(=S)SSC(=S)N2CCOC(C(=O)OC)C2)CCO1 (stereo not given)
inhibition [3]: Active
inhibition [4]: Active
inhibition [5]: Active
inhibition [6]: Active
IC50 [1]: 85 nM

CN(C)C(=O)OCC1CN(C(=S)SSC(=S)N2CCOC(COC(=O)N(C)C)C2)CCO1 (stereo not given)
IC50 [1]: 1700 nM

CC1CCc2nc(SSc3nc4c(s3)CC(C)CC4)sc2C1 (stereo not given)
IC50 [1]: 119 nM

OCC1CN(C(=S)SSC(=S)N2CCCOC(CO)C2)CCCO1 (stereo not given)
IC50 [1]: 2850 nM

CCCCOCC1CN(C(=S)SSC(=S)N2CCCOC(COCCCC)C2)CCCO1 (stereo not given)
IC50 [1]: 588 nM

S=C(SSC(=S)N1CCOC(COc2ccccc2)C1)N1CCOC(COc2ccccc2)C1 (stereo not given)
inhibition [4]: Active
IC50 [1]: 247 nM

Cc1ccc(OCC2CN(C(=S)SSC(=S)N3CCCOC(COc4ccc(C)cc4)C3)CCCO2)cc1 (stereo not given)
IC50 [1]: > 10000 nM

OCC1CN(C(=S)SSC(=S)N2CCOC(CO)C2)CCO1 (stereo not given)
inhibition [3]: inactive
inhibition [4]: Active
inhibition [5]: inactive
inhibition [6]: Active
IC50 [1]: 702 nM

CCCCCCCCCCOCC1CN(C(=S)SSC(=S)N2CCCOC(COCCCCCCCCCC)C2)CCCO1 (stereo not given)
IC50 [1]: > 10000 nM

CN(C)C(=O)OCC1CN(C(=S)SSC(=S)N2CCCOC(COC(=O)N(C)C)C2)CCCO1 (stereo not given)
IC50 [1]: 1460 nM

CC(=O)OCC1CN(C(=S)SSC(=S)N2CCOC(COC(C)=O)C2)CCO1 (stereo not given)
inhibition [3]: Active
inhibition [4]: Active
inhibition [5]: Active
inhibition [6]: Active
IC50 [1]: 113 nM

C1CCc2nc(SSc3nc4c(s3)CCCCC4)sc2CC1
Kinact [21]: 69.9 ×10⁻⁴ /s
Ratio [22]: 3.93 ×10³ /M/s
IC50 [1]: 39 nM
Ki [1]: 1800 nM

COCC1CN(C(=S)SSC(=S)N2CCOC(COC)C2)CCO1 (stereo not given)
inhibition [3]: Active
inhibition [4]: Active
inhibition [5]: Active
inhibition [6]: Active
IC50 [1]: 90 nM

CCOCC1CN(C(=S)SSC(=S)N2CCOC(COCC)C2)CCO1 (stereo not given)
IC50 [1]: 101 nM

S=C(SSC(=S)N1CCCOC(COc2ccccc2)C1)N1CCCOC(COc2ccccc2)C1 (stereo not given)
IC50 [1]: 609 nM

O=[N+]([O-])c1ccc2nc(SSc3nc4ccc([N+](=O)[O-])cc4s3)sc2c1
IC50 [1]: 161 nM

CCOC[C@@H]1COCCN1C(=S)SSC(=S)N1CCOC[C@H]1COCC
inhibition [3]: Active
inhibition [4]: Active
inhibition [5]: Active
inhibition [6]: Active
IC50 [1]: 72 nM

OC1CN(C(=S)SSC(=S)N2CC(O)C2)C1
Kinact [21]: 4.74 ×10⁻⁴ /s
Ratio [22]: 0.07 ×10³ /M/s
IC50 [1]: 395 nM
Ki [1]: 872 nM

Sc1nc2ccccc2s1
inhibition [2]: inactive

COC[C@H]1COCCN1C(=S)SSC(=S)N1CCOC[C@@H]1COC
IC50 [1]: 30 nM
Ki [1]: 120 nM

CC1CN(C(=S)SSC(=S)N2CCOC(C)C2)CCO1 (stereo not given)
inhibition [3]: Active
inhibition [4]: Active
inhibition [5]: Active
inhibition [6]: Active
IC50 [1]: 96 nM

OC[C@@H]1COCCN1C(=S)SSC(=S)N1CCOC[C@H]1CO
Kinact [21]: 3.24 ×10⁻⁴ /s
Ratio [22]: 0.54 ×10³ /M/s
IC50 [1]: 2440 nM
Ki [1]: 4030 nM

C1Cc2nc(SSc3nc4c(s3)COCC4)sc2CO1
IC50 [1]: 169 nM

S=C(SSC(=S)N1CCOc2ccccc21)N1CCOc2ccccc21
Kinact [21]: 2.1 ×10⁻⁴ /s
Ratio [22]: 0.06 ×10³ /M/s
IC50 [1]: 1050 nM
Ki [1]: 3350 nM

O=C(O)C1CN(C(=S)SSC(=S)N2CCOC(C(=O)O)C2)CCO1 (stereo not given)
IC50 [1]: 126 nM

S=C(SSC(=S)N1CCOC(COc2cccc3ccccc23)C1)N1CCOC(COc2cccc3ccccc23)C1 (stereo not given)
Kinact [21]: 6.9 ×10⁻⁴ /s
Ratio [22]: 0.03 ×10³ /M/s
IC50 [1]: 3870 nM
Ki [1]: 22600 nM

c1csc(SSc2nccs2)n1
Kinact [21]: 56.5 ×10⁻⁴ /s
Ratio [22]: 1.53 ×10³ /M/s
IC50 [1]: 326 nM
Ki [1]: 3730 nM

CCOCC1CN(C(=S)SSC(=S)N2CCCOC(COCC)C2)CCCO1 (stereo not given)
IC50 [1]: 622 nM

CC1(C)CCc2nc(SSc3nc4c(s3)CC(C)(C)CC4)sc2C1
IC50 [1]: 218 nM

S=C(SSC(=S)N1CCO[C@H]2CCCC[C@@H]21)N1CCO[C@H]2CCCC[C@@H]21
inhibition [4]: Active
IC50 [1]: 289 nM

Cc1ccc(OCC2CN(C(=S)SSC(=S)N3CCOC(COc4ccc(C)cc4)C3)CCO2)cc1 (stereo not given)
IC50 [1]: 2410 nM

COCC1CN(C(=S)SSC(=S)N2CCCOC(COC)C2)CCCO1 (stereo not given)
IC50 [1]: 350 nM

C1CCc2sc(SSc3nc4c(s3)CCCC4)nc2C1
IC50 [1]: 90 nM
